According to US7776880B2, “Derivatives of pyrrolizine, indolizine and quinolizine, preparation thereof and therapeutic use thereof” (sanofi-aventis, priority 2006, dated 2010):
Where a name gives a salt, the structure may show the parent alone.

Target: T1, native human transporter GlyT1 (Homo sapiens, UniProt P48067)
T1 construct: SK-N-MC cells (human neuroepithelial cells) expressing the native human transporter GlyT1; endogenous in cells; host or cells: SK-N-MC (human neuroepithelial cells)
T1 sequence (P48067 1-706): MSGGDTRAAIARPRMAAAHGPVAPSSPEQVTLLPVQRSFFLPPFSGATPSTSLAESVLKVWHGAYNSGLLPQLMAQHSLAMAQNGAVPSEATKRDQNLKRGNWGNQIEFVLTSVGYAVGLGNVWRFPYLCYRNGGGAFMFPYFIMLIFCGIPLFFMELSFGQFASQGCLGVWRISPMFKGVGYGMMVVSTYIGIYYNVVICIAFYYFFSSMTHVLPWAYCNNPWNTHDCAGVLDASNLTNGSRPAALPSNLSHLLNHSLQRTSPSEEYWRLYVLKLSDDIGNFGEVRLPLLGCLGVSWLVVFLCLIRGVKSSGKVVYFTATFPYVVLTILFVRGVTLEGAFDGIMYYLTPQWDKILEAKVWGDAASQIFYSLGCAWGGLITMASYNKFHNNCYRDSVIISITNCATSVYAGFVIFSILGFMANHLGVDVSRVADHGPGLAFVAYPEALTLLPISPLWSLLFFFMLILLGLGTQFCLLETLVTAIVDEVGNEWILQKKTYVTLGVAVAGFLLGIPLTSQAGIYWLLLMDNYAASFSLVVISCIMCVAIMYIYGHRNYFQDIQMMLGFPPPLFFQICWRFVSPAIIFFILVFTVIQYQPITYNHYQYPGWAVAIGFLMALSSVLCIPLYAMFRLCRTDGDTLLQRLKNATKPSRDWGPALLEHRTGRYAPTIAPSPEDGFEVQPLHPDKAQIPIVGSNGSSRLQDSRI
Assay: Uptake of [14C]glycine in SK-N-MC cells expressing the native human transporter GlyT1
Format: cell-based
Conditions: 10 μM [14C]glycine, 10 min preincubation and 10 min incubation at 37° C., pH 7.4, read-out: IC50, the concentration of the compound which reduces by 50% the specific uptake of glycine
Method: Study of glycine transportation in SK-N-MC cells expressing the native human transporter GlyT1.
The uptake of [^14C]glycine is studied in SK-N-MC cells (human neuroepithelial cells) expressing the native human transporter GlyT1 by measuring the radioactivity incorporated in the presence or absence of the test compound. The cells are cultured as a monolayer for 48 hours in plates pretreated with 0.02% fibronectin. On the day of the experiment, the culture medium is removed and the cells are washed with Krebs-HEPES (4-(2-hydroxyethyl)piperazine-1-ethanesulphonic acid) buffer at pH 7.4. After preincubation for 10 minutes at 37° C. in the presence either of buffer (control batch) or of test compound at various concentrations or of 10 mM of glycine (determination of the non-specific uptake), 10 μM of [^14C]glycine (specific activity 112 mCi/mmol) are subsequently added. Incubation is continued for 10 min at 37° C. and the reaction is halted by washing twice with pH 7.4 Krebs-HEPES buffer. The radioactivity incorporated by the cells is then estimated after adding 100 μl of liquid scintillant and stirring for 1 h. Counting is carried out on a Microbeta Tri-Lux™ counter. The effectiveness of the compound is determined by the IC50, the concentration of the compound which reduces by 50% the specific uptake of glycine, defined by the difference in radioactivity incorporated by the control batch and the batch which received the 10 mM glycine.

| IC50 | Compound |
| --- | --- |
| 80 nM | O=C(NC(c1ccccc1)C1CCCC2CCCN21)c1cccc(C(F)(F)F)c1Cl (racemic) [Compound 1, trans-threo-2-Chloro-N-[(octahydroindolizin-5-yl)phenylmethyl]-3-trifluoromethyl-benzamide hydrochloride 1:1] |
| 23 nM | O=C(N[C@H](c1ccccc1)[C@@H]1CCC[C@H]2CCCN21)c1cccc(C(F)(F)F)c1Cl (racemic) [Compound 2, trans-erythro-2-chloro-N-[(octahydroindolizin-5-yl)phenylmethyl]-3-trifluoromethyl-benzamide hydrochloride 1:1] |
| 3 nM | O=C(NC(c1ccccc1)C1CCC2CCCCN21)c1cccc(C(F)(F)F)c1Cl (racemic) [Compound 5, trans-threo-2-Chloro-N-[(octahydroindolizin-3-yl)phenylmethyl]-3-trifluoromethyl-benzamide hydrochloride 1.1] |

Test system: not given
Assay: not given
Conditions: not given

| melting point | Compound |
| --- | --- |
| 132 to 134 °C | O=C(NC(c1ccccc1)C1CCCC2CCCN21)c1cccc(C(F)(F)F)c1Cl (racemic) (as salt: HCl) [Compound 1, trans-threo-2-Chloro-N-[(octahydroindolizin-5-yl)phenylmethyl]-3-trifluoromethyl-benzamide hydrochloride 1:1] |
| 132 to 134 °C | O=C(N[C@H](c1ccccc1)[C@@H]1CCC[C@H]2CCCN21)c1cccc(C(F)(F)F)c1Cl (racemic) (as salt: HCl) [Compound 2, trans-erythro-2-chloro-N-[(octahydroindolizin-5-yl)phenylmethyl]-3-trifluoromethyl-benzamide hydrochloride 1:1] |
| 138 to 139 °C | O=C(NC(c1ccccc1)C1CCC2CCCCN21)c1cccc(C(F)(F)F)c1Cl (racemic) (as salt: HCl) [Compound 5, trans-threo-2-Chloro-N-[(octahydroindolizin-3-yl)phenylmethyl]-3-trifluoromethyl-benzamide hydrochloride 1.1] |
